Measured values published in ChEMBL document CHEMBL1201862, “PubChem BioAssay data set” (2004).
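These data come from cells grown in 96-well plates and exposed to compound for 48 hours at five concentrations. GI50 = concentration required for 50% inhibition of growth.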 Active and inactive are the calls of the source. Rule as the data show it: active = GI50 up to about 1.1 µM and inactive = higher.

How the values were obtained:
Test in all cases: growth of human tumour cells (NCI), 48 h
786-0 = test system: 786-0
A498 = test system: A498
A549 = test system: A549
BT-549 = test system: BT-549
CAKI-1 = test system: CAKI-1
CCRF-CEM = test system: CCRF-CEM
COLO 205 = test system: COLO 205
DU-145 = test system: DU-145
EKVX = test system: EKVX
HCC 2998 = test system: HCC 2998
HCT-116 = test system: HCT-116
HOP-62 = test system: HOP-62
HT-29 = test system: HT-29
Hs-578T = test system: Hs-578T
IGROV-1 = test system: IGROV-1
K562 = test system: K562
M14 = test system: M14
MCF7 = test system: MCF7
MDA-MB-231 = test system: MDA-MB-231
MDA-MB-435 = test system: MDA-MB-435
MDA-N = test system: MDA-N
MOLT-4 = test system: MOLT-4
Malme-3M = test system: Malme-3M
NCI-H226 = test system: NCI-H226
NCI-H23 = test system: NCI-H23
NCI-H522 = test system: NCI-H522
NCI/ADR-RES = test system: NCI/ADR-RES
OVCAR-3 = test system: OVCAR-3
OVCAR-5 = test system: OVCAR-5
OVCAR-8 = test system: OVCAR-8
PC-3 = test system: PC-3
RXF 393 = test system: RXF 393
SF-268 = test system: SF-268
SF-295 = test system: SF-295
SF-539 = test system: SF-539
SK-MEL-2 = test system: SK-MEL-2
SK-MEL-5 = test system: SK-MEL-5
SK-OV-3 = test system: SK-OV-3
SN12C = test system: SN12C
SNB-19 = test system: SNB-19
SR = test system: SR
T47D = test system: T47D
TK-10 = test system: TK-10
U-251 = test system: U-251
UACC-257 = test system: UACC-257
UACC-62 = test system: UACC-62
ACHN = test system: ACHN
HCT-15 = test system: HCT-15
HL-60 = test system: HL-60
HOP-92 = test system: HOP-92
KM12 = test system: KM12
LOX IMVI = test system: LOX IMVI
NCI-H460 = test system: NCI-H460
OVCAR-4 = test system: OVCAR-4
RPMI-8226 = test system: RPMI-8226
SK-MEL-28 = test system: SK-MEL-28
SNB-75 = test system: SNB-75
SW-620 = test system: SW-620
UO-31 = test system: UO-31

Measured: GI50

Clc1c(Cl)c(Cl)c2nn(C3CCCO3)nc2c1Cl (stereo unspecified)
inactive: 786-0 70.3 µM | A498 > 100 µM | A549 37.4 µM | BT-549 26.8 µM | CAKI-1 80.4 µM | CCRF-CEM 82.2 µM | COLO 205 55.6 µM | DU-145 > 100 µM | EKVX 19.5 µM | HCC 2998 91 µM | HCT-116 50.6 µM | HOP-62 28.1 µM | HT-29 49.1 µM | Hs-578T 11.7 µM | IGROV-1 32.4 µM | K562 40.7 µM | M14 > 100 µM | MCF7 46.3 µM | MDA-MB-231 76.7 µM | MDA-MB-435 44.3 µM | MDA-N 30.5 µM | MOLT-4 30.5 µM | Malme-3M 39.4 µM | NCI-H226 > 100 µM | NCI-H23 37.8 µM | NCI-H522 37.3 µM | NCI/ADR-RES 42.8 µM | OVCAR-3 43 µM | OVCAR-5 > 100 µM | OVCAR-8 63.5 µM | PC-3 82 µM | RXF 393 > 100 µM | SF-268 46.6 µM | SF-295 39.4 µM | SF-539 86.9 µM | SK-MEL-2 68.1 µM | SK-MEL-5 25.5 µM | SK-OV-3 > 100 µM | SN12C 46.5 µM | SNB-19 26.7 µM | SR 52.6 µM | T47D 37 µM | TK-10 69.8 µM | U-251 41.4 µM | UACC-257 72.6 µM | UACC-62 60.3 µM

CC1(C)OCC2OC3(c4nc(C#N)c(N)o4)OC(C)(C)OC3C2O1 (stereo unspecified)
> 100 µM: HCT-15
inactive: 786-0 > 100 µM | A498 > 100 µM | A549 > 100 µM | ACHN > 100 µM | BT-549 > 100 µM | CAKI-1 > 100 µM | CCRF-CEM > 100 µM | COLO 205 > 100 µM | DU-145 > 100 µM | EKVX > 100 µM | HCC 2998 > 100 µM | HCT-116 > 100 µM | HL-60 > 100 µM | HOP-62 > 100 µM | HOP-92 > 100 µM | HT-29 > 100 µM | Hs-578T > 100 µM | IGROV-1 > 100 µM | K562 > 53.3 µM | KM12 > 100 µM | LOX IMVI > 100 µM | M14 > 100 µM | MCF7 > 100 µM | MDA-MB-231 > 100 µM | MDA-MB-435 > 100 µM | MDA-N > 100 µM | MOLT-4 > 100 µM | Malme-3M > 100 µM | NCI-H226 > 100 µM | NCI-H23 > 100 µM | NCI-H460 > 100 µM | NCI-H522 > 100 µM | NCI/ADR-RES > 100 µM | OVCAR-3 > 100 µM | OVCAR-4 > 100 µM | OVCAR-5 > 100 µM | OVCAR-8 > 100 µM | PC-3 > 100 µM | RPMI-8226 > 100 µM | SF-268 > 100 µM | SF-295 > 100 µM | SF-539 > 100 µM | SK-MEL-28 > 100 µM | SK-MEL-2 > 100 µM | SK-MEL-5 > 100 µM | SK-OV-3 > 100 µM | SN12C > 100 µM | SNB-19 > 100 µM | SNB-75 > 100 µM | SR > 100 µM | SW-620 > 100 µM | T47D > 100 µM | TK-10 > 100 µM | U-251 > 100 µM | UACC-257 > 100 µM | UACC-62 > 100 µM | UO-31 > 100 µM

O=C(CCCN1CCC2(CC1)NC(=O)c1ccccc1O2)c1ccc(F)cc1
inactive: 786-0 > 100 µM | A549 > 100 µM | ACHN > 100 µM | BT-549 46.6 µM | CAKI-1 > 100 µM | CCRF-CEM 90.4 µM | COLO 205 50.1 µM | DU-145 > 100 µM | EKVX > 100 µM | HCC 2998 > 100 µM | HCT-116 > 100 µM | HL-60 85.3 µM | HOP-62 > 100 µM | HOP-92 > 100 µM | HT-29 43.3 µM | Hs-578T 96.8 µM | IGROV-1 > 100 µM | K562 39.7 µM | KM12 > 100 µM | LOX IMVI 80 µM | M14 87.7 µM | MCF7 94.6 µM | MDA-MB-231 > 100 µM | MDA-MB-435 > 100 µM | MDA-N > 100 µM | MOLT-4 50.1 µM | Malme-3M 70.6 µM | NCI-H226 > 100 µM | NCI-H23 > 100 µM | NCI-H460 > 100 µM | NCI-H522 > 100 µM | NCI/ADR-RES > 100 µM | OVCAR-3 > 100 µM | OVCAR-4 91 µM | OVCAR-5 87.1 µM | OVCAR-8 > 100 µM | PC-3 73.8 µM | RPMI-8226 76.6 µM | RXF 393 64.7 µM | SF-268 > 100 µM | SF-295 > 100 µM | SF-539 > 100 µM | SK-MEL-28 > 100 µM | SK-MEL-2 > 100 µM | SK-MEL-5 44.9 µM | SK-OV-3 > 100 µM | SN12C > 100 µM | SNB-75 > 100 µM | SR 57 µM | SW-620 > 100 µM | T47D 84.3 µM | TK-10 81.7 µM | U-251 > 100 µM | UACC-257 55.5 µM | UACC-62 > 100 µM | UO-31 73.5 µM
> 100 µM: HCT-15

CCOC(=O)C(C)NC(=O)C(C)NC(=O)C(C)NC(=O)C(C)NC(=O)C(C)NC(=O)OCc1ccccc1 (stereo unspecified)
> 100 µM: HCT-15
inactive: 786-0 > 100 µM | A549 > 100 µM | ACHN > 100 µM | BT-549 > 100 µM | CAKI-1 > 100 µM | CCRF-CEM > 100 µM | COLO 205 > 100 µM | DU-145 > 100 µM | EKVX > 100 µM | HCC 2998 > 100 µM | HCT-116 > 100 µM | HL-60 > 100 µM | HOP-62 > 100 µM | HT-29 > 100 µM | Hs-578T > 100 µM | IGROV-1 > 100 µM | K562 > 100 µM | KM12 > 100 µM | LOX IMVI > 100 µM | M14 > 100 µM | MCF7 > 100 µM | MDA-MB-231 > 100 µM | MDA-MB-435 > 100 µM | MDA-N > 100 µM | MOLT-4 > 100 µM | Malme-3M > 100 µM | NCI-H226 > 100 µM | NCI-H23 > 100 µM | NCI-H460 > 100 µM | NCI-H522 > 100 µM | NCI/ADR-RES > 100 µM | OVCAR-3 > 100 µM | OVCAR-4 > 100 µM | OVCAR-5 > 100 µM | OVCAR-8 > 100 µM | PC-3 > 100 µM | RPMI-8226 > 100 µM | RXF 393 > 100 µM | SF-268 > 100 µM | SF-295 > 100 µM | SF-539 > 100 µM | SK-MEL-28 > 100 µM | SK-MEL-2 > 100 µM | SK-MEL-5 > 100 µM | SK-OV-3 > 100 µM | SN12C > 100 µM | SNB-19 > 100 µM | SNB-75 78.3 µM | SR > 100 µM | SW-620 > 100 µM | T47D > 100 µM | TK-10 > 100 µM | U-251 > 100 µM | UACC-257 > 100 µM | UACC-62 > 100 µM | UO-31 > 100 µM

[N-]=[N+]=NCC1OCC(O)C(OCc2ccccc2)C1OCc1ccccc1 (stereo unspecified)
inactive: 786-0 81.5 µM | A498 > 100 µM | A549 70 µM | ACHN > 100 µM | BT-549 28.9 µM | CAKI-1 > 100 µM | CCRF-CEM 83.4 µM | COLO 205 > 100 µM | DU-145 86.7 µM | EKVX 48.4 µM | HCC 2998 72.8 µM | HCT-116 95.9 µM | HL-60 70.6 µM | HOP-62 > 100 µM | HOP-92 65.3 µM | HT-29 36.3 µM | Hs-578T > 100 µM | IGROV-1 79.3 µM | K562 51.4 µM | KM12 41 µM | LOX IMVI > 100 µM | M14 > 100 µM | MCF7 > 100 µM | MDA-MB-231 > 100 µM | MDA-MB-435 > 100 µM | MDA-N > 100 µM | MOLT-4 37.1 µM | Malme-3M > 10 µM | NCI-H226 55 µM | NCI-H23 > 100 µM | NCI-H460 48.2 µM | NCI-H522 70 µM | NCI/ADR-RES > 100 µM | OVCAR-3 > 100 µM | OVCAR-4 > 100 µM | OVCAR-5 > 100 µM | OVCAR-8 > 100 µM | PC-3 73.1 µM | RPMI-8226 > 100 µM | SF-268 > 100 µM | SF-295 79.3 µM | SF-539 > 100 µM | SK-MEL-28 > 100 µM | SK-MEL-2 39.4 µM | SK-MEL-5 95.9 µM | SK-OV-3 > 100 µM | SN12C > 100 µM | SNB-19 > 100 µM | SNB-75 20.5 µM | SR 57.1 µM | SW-620 > 100 µM | T47D 25.1 µM | TK-10 > 100 µM | U-251 > 100 µM | UACC-257 66.8 µM | UACC-62 31.9 µM | UO-31 65.2 µM
61 µM: HCT-15
